Values of other authors, collected in patent US20060111343A1, “Oxcarbazepine dosage forms” (Glenmark Pharmaceuticals Limited, priority 2004, published 2006).

## NC(=O)N1c2ccccc2CC(=O)c2ccccc21 [Oxcarbazepine, 10,11-dihydro-10-oxo-5H-dibenzo[b,]azepine-5-carboxamide]
  solubility in water: poor solubility in water
